Assay [1] addresses T1, human TRPV1 (Homo sapiens (Human), UniProt Q8NER1). Put plainly: Acid Activation Assay (pH 5.0, intracellular Ca2+, FLIPR). It counts as cell-based. To be noted: percentage of the maximal pH 5.0-induced response remaining; recombinant HEK293 hTRPV1 cells; maximum concentration tested 37.5 μM. Summed up:
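HEK293 cells stably expressing recombinant hTRPV1, loaded with Calcium-4 dye 90-120 min at 25° C. Compounds added over a 12-point half-log range (top 37.5 μM), then pH 5.0 DPBS/MES challenge after 3 min; FLIPR peak fluorescence over baseline given as % of maximal pH 5.0 response.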

Assay [2] relates to rats. Briefly: Sodium iodoacetate-induced knee joint osteoarthritic pain model (hind limb grip force). It counts as in vivo. To be noted: rat, po, single acute dose, 1 hour after administration, 20 days after sodium iodoacetate, read-out: % effect (% return to normalcy of hind limb grip force). Here is the method: Unilateral knee joint osteoarthritis was induced in the rats by a single intra-articular (i.a.) injection of sodium iodoacetate (3 mg in 0.05 mL sterile isotonic saline) into the right knee joint cavity under light isoflurane anesthesia using a 26 G needle. […] Pain behavioral assessment of hind limb grip force was conducted by recording the maximum compressive force exerted on the hind limb strain gauge setup, in a commercially available grip force measurement system (Columbus Instruments, Columbus, Ohio). The grip force data was converted to a maximum hindlimb cumulative compressive force (CFmax) (gram force)/kg body weight for each animal. The analgesic effects of test compounds were determined 20 days following the i.a. injection of sodium iodoacetate. The vehicle control group for each compound being tested was assigned 0% whereas the age matched naïve group was assigned as being 100% (normal). The % effect for each dose group was then expressed as % return to normalcy compared to the naïve group. Test compounds were administered orally in 10% ethanol/20% Tween 80/70% polyethylene glycol-400 vehicle at a volume of 2 mL/kg. The assessment of the analgesic effects of test compounds was made 1 hour following oral administration. The assessment of the analgesic effects of test compounds can be made following a single dose or following repeated administration wherein the frequency of dosing is 1 to 2 times daily. The duration of such repeated daily dosing may last for any time greater than one day. A typical duration of repeated daily dosing is about 5 days to about 12 days.

Assay [3] deals with T1, human TRPV1. Briefly: Capsaicin Activation Assay (intracellular Ca2+, FLIPR). It counts as cell-based. To be noted: recombinant HEK293 cells expressing hTRPV1, 50 nM capsaicin. Summed up: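 Stably transfected HEK293 cells expressing human TRPV1 cDNA, plated the day before in poly-D-lysine plates. Compounds serially diluted from 10 mM DMSO stocks; intracellular Ca2+ fluorescence read on FLIPR at 1 to 5 second intervals.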

Assay [4] relates to rats. Put plainly: Rat acute capsaicin-induced flinching behavior. It counts as in vivo. The conditions noted are these: 1 h, oral dose given as 100 nmol/kg, capsaicin 2.5 μg into hind paw one hour after compound, five minute observation, relative to control-treated animals, read-out: % effect (percent reduction in the number of flinching behaviors). Here is the method:
Rats were placed in individual observation cages. Following an acclimation period of 30 minutes, selected compounds were administered orally at a dose of 100 nmol/kg in a vehicle (10% ethanol/20% Tween 80/70% polyethylene glycol-400) at a volume of 2 mL/kg. One hour after administration of the compound, 2.5 μg of capsaicin in a 10 μL solution of 10% ethanol/90% hydroxypropyl-β-cyclodextrin was injected subcutaneously into the dorsal aspect of the right hind paw. The observation cage was then suspended above mirrors in order to facilitate observation. […] The number of flinching behaviors of the injured paw was recorded during the five minute observation period (Gilchrist, H. D.; Allard, B. L.; Simone, D. A.; Enhanced withdrawal responses to heat and mechanical stimuli following intraplantar injection of capsaicin in rats. Pain, 1996, 67, 179-188). The percent reduction in the number of flinching behaviors produced from oral administration of the test compounds relative to control-treated animals (% effect) is reported in Table 2.

The record followed here is patent US8969325B2, “TRPV1 antagonists” (AbbVie Inc., priority 2011, dated 2015).

Usually IC50 stands for the concentration that gives 50% inhibition.

T1 sequence (Q8NER1 whole entry): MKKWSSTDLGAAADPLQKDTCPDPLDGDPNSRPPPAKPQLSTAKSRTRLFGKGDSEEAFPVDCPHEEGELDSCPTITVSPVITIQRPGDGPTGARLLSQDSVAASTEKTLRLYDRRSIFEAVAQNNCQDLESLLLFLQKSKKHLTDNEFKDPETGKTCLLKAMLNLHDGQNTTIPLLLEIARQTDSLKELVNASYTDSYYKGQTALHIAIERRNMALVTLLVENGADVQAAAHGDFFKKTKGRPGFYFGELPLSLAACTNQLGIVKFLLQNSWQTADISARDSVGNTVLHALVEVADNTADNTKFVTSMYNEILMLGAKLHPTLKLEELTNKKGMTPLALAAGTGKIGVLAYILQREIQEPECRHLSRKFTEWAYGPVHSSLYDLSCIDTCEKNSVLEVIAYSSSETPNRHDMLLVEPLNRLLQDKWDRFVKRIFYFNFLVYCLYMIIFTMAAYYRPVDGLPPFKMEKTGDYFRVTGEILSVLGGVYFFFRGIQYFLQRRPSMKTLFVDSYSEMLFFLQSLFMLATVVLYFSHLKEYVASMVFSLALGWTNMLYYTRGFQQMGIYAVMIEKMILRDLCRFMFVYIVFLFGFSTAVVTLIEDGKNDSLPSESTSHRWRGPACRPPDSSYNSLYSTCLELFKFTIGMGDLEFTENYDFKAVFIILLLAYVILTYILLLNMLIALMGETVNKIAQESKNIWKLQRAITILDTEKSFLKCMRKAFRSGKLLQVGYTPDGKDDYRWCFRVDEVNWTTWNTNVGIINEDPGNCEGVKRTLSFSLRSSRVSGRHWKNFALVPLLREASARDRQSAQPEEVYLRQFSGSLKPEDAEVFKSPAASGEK

For `CN1C(=O)NCc2c(NC(=O)N[C@@H]3CC(CF)(CF)Oc4cc(Cl)ccc43)cccc21` [Example 2, 1-[(4R)-7-chloro-2,2-bis(fluoromethyl)-3,4-dihydro-2H-chromen-4-yl]-3-(1-methyl-2-oxo-1,2,3,4-tetrahydroquinazolin-5-yl)urea], the “human TRPV1 H^+ (max % remain)” value on human TRPV1 [1] amounted to 21%. Further, in the assay on rats [2] (14 mg/kg), the inhibition in vivo at 14 mg/kg was determined as 36%. For the same molecule, the IC50 on human TRPV1 [3] was found to be 36 nM.
Consider `CN1C(=O)NCc2c(NC(=O)N[C@@H]3C[C@@](C)(C(F)F)Oc4ccccc43)cccc21` [Example 13, 1-[(2S,4R)-2-(difluoromethyl)-2-methyl-3,4-dihydro-2H-chromen-4-yl]-3-(1-methyl-2-oxo-1,2,3,4-tetrahydroquinazolin-5-yl)urea], for which the “human TRPV1 H^+ (max % remain)” value at human TRPV1 [1] came to 41%. Also, the inhibition in vivo at 12 mg/kg in the assay with rats [2] (12 mg/kg) was determined as 63%. In addition, the half-inhibitory concentration (IC50) on human TRPV1 [3] worked out at 53 nM.
Turning to `CCC1(CC)C[C@@H](NC(=O)Nc2ccc3c(c2)NC(=O)CC3)c2cccc(F)c2O1` [Example 222, 1-[(4R)-2,2-diethyl-8-fluoro-3,4-dihydro-2H-chromen-4-yl]-3-(2-oxo-1,2,3,4-tetrahydroquinolin-7-yl)urea], on human TRPV1 [1], the “human TRPV1 H^+ (max % remain)” value turned out to be 30%. Also, in the assay on rats [2], the inhibition in vivo at 10 mg/kg was determined as 26%. The half-inhibitory concentration (IC50) at human TRPV1 [3] turned out to be 32 nM.
Take `O=C1CCc2ccc(NC(=O)N[C@@H]3CCc4cc(Cl)ccc43)cc2N1` [Example 251, 1-[(1R)-5-chloro-2,3-dihydro-1H-inden-1-yl]-3-(2-oxo-1,2,3,4-tetrahydroquinolin-7-yl)urea]: the “human TRPV1 H^+ (max % remain)” value at human TRPV1 [1] was 26%. For the same molecule, the inhibition in vivo at 10 mg/kg with rats [2] was found to be 38%. For the same molecule, on human TRPV1 [3], the IC50 amounted to 78 nM.
The corresponding values for `O=C1CCc2ccc(NC(=O)N[C@@H]3CCc4cc(C(F)(F)F)ccc43)cc2N1` [Example 35, 1-(2-oxo-1,2,3,4-tetrahydroquinolin-7-yl)-3-[(1R)-5-(trifluoromethyl)-2,3-dihydro-1H-inden-1-yl]urea] are 38%, 42% and 4 nM.
Regarding `C[C@]1(C(F)F)C[C@@H](NC(=O)Nc2ccc3c(c2)NC(=O)CO3)c2ccc(Cl)cc2O1` [Example 321, 1-[(2R,4R)-7-chloro-2-(difluoromethyl)-2-methyl-3,4-dihydro-2H-chromen-4-yl]-3-(3-oxo-3,4-dihydro-2H-1,4-benzoxazin-6-yl)urea], the “human TRPV1 H^+ (max % remain)” value at human TRPV1 [1] stood at 87%. For the same molecule, the inhibition in vivo at 10 mg/kg in the assay on rats [2] worked out at 31%. Also, the 50% inhibitory concentration (IC50) at human TRPV1 [3] worked out at 21 nM.
Turning to `Cn1c(=O)ccc2c(NC(=O)N[C@@H]3CC(C)(C)Oc4cc(F)ccc43)cccc21` [Example 19, 1-[(4R)-7-fluoro-2,2-dimethyl-3,4-dihydro-2H-chromen-4-yl]-3-(1-methyl-2-oxo-1,2-dihydroquinolin-5-yl)urea], the “human TRPV1 H^+ (max % remain)” value at human TRPV1 [1] was determined as 38%. Besides, in the assay on rats [4], the inhibition in vivo at 0.1 µmol/kg was 90%.
As to `Cn1c(=O)ccc2c(NC(=O)N[C@@H]3C[C@](C)(C(F)F)Oc4ccccc43)cccc21` [Example 28, 1-[(2R,4R)-2-(difluoromethyl)-2-methyl-3,4-dihydro-2H-chromen-4-yl]-3-(1-methyl-2-oxo-1,2-dihydroquinolin-5-yl)urea], on human TRPV1 [1], the “human TRPV1 H^+ (max % remain)” value worked out at 53%. Besides, the inhibition in vivo at 0.1 µmol/kg with rats [4] is 81%. Further, the IC50 on human TRPV1 [3] turned out to be 12 nM.
On the same counts, the results for `Cn1c(=O)ccc2c(NC(=O)N[C@@H]3CC(C)(C)Oc4ccc(F)cc43)cccc21` [Example 24, 1-[(4R)-6-fluoro-2,2-dimethyl-3,4-dihydro-2H-chromen-4-yl]-3-(1-methyl-2-oxo-1,2-dihydroquinolin-5-yl)urea] are 60%, 58% and 21 nM.
As for `CC1(C)C[C@@H](NC(=O)Nc2ccc3c(c2)NC(=O)CC3)c2ccc(C(F)(F)F)cc2O1` [Example 32, 1-[(4R)-2,2-dimethyl-7-(trifluoromethyl)-3,4-dihydro-2H-chromen-4-yl]-3-(2-oxo-1,2,3,4-tetrahydroquinolin-7-yl)urea], the “human TRPV1 H^+ (max % remain)” value at human TRPV1 [1] was determined as 37%. For the same molecule, the inhibition in vivo at 10 mg/kg with rats [2] was 22%. Besides, the half-inhibitory concentration (IC50) at human TRPV1 [3] was 36 nM.
Turning to `CN1C(=O)CCc2ccc(NC(=O)N[C@@H]3CCc4cc(C(F)(F)F)ccc43)cc21` [Example 36, 1-(1-methyl-2-oxo-1,2,3,4-tetrahydroquinolin-7-yl)-3-[(1R)-5-(trifluoromethyl)-2,3-dihydro-1H-inden-1-yl]urea], the “human TRPV1 H^+ (max % remain)” value on human TRPV1 [1] was 66%. Also, in the assay with rats [4], the inhibition in vivo at 0.1 µmol/kg turned out to be 60%. Besides, the 50% inhibitory concentration (IC50) at human TRPV1 [3] is 34 nM.
The corresponding values for `CC1(C)C[C@@H](NC(=O)Nc2ccc3c(c2)NC(=O)CC3)c2ccc(F)cc2O1` [Example 221, 1-[(4R)-7-fluoro-2,2-dimethyl-3,4-dihydro-2H-chromen-4-yl]-3-(2-oxo-1,2,3,4-tetrahydroquinolin-7-yl)urea] are 39%, 53% and 1600 nM.
As for `CC1(C)C[C@@H](NC(=O)Nc2ccc3c(c2)NC(=O)CC3)c2ccc(Cl)c(F)c2O1` [Example 39, 1-[(4R)-7-chloro-8-fluoro-2,2-dimethyl-3,4-dihydro-2H-chromen-4-yl]-3-(2-oxo-1,2,3,4-tetrahydroquinolin-7-yl)urea], on human TRPV1 [1], the “human TRPV1 H^+ (max % remain)” value came out at 34%. In addition, in the assay with rats [2], the inhibition in vivo at 10 mg/kg was determined as 50%. On human TRPV1 [3], the concentration for half-maximal inhibition (IC50) turned out to be 14 nM.
Turning to `C[C@]1(CF)C[C@@H](NC(=O)Nc2ccc3c(c2)NC(=O)CC3)c2ccc(Cl)cc2O1` [Example 241, 1-[(2R,4R)-7-chloro-2-(fluoromethyl)-2-methyl-3,4-dihydro-2H-chromen-4-yl]-3-(2-oxo-1,2,3,4-tetrahydroquinolin-7-yl)urea], the “human TRPV1 H^+ (max % remain)” value at human TRPV1 [1] was 54%. For the same molecule, the inhibition in vivo at 0.1 µmol/kg in the assay with rats [4] stood at 53%. Further, the IC50 on human TRPV1 [3] came to 130 nM.
On to `O=C1COc2ccc(NC(=O)N[C@@H]3CC(CF)(CF)Oc4cc(C(F)(F)F)ccc43)cc2N1` [Example 324, 1-[(4R)-2,2-bis(fluoromethyl)-7-(trifluoromethyl)-3,4-dihydro-2H-chromen-4-yl]-3-(3-oxo-3,4-dihydro-2H-1,4-benzoxazin-6-yl)urea], for which the “human TRPV1 H^+ (max % remain)” value on human TRPV1 [1] amounted to 96%. In addition, the inhibition in vivo at 10 mg/kg with rats [2] is 67%. On human TRPV1 [3], the IC50 was determined as 19 nM.
Take `O=C1CCc2ccc(NC(=O)N[C@@H]3CC(CF)(CF)Oc4cc(Cl)ccc43)cc2N1` [Example 31, 1-[(4R)-7-chloro-2,2-bis(fluoromethyl)-3,4-dihydro-2H-chromen-4-yl]-3-(2-oxo-1,2,3,4-tetrahydroquinolin-7-yl)urea]: the “human TRPV1 H^+ (max % remain)” value on human TRPV1 [1] is recorded as 36%. In the assay with rats [2], the inhibition in vivo at 10 mg/kg turned out to be 24%.
In the case of `C[C@]1(C(F)(F)F)C[C@@H](NC(=O)Nc2ccc3c(c2)NC(=O)CC3)c2ccccc2O1` [Example 34, 1-[(2R,4R)-2-methyl-2-(trifluoromethyl)-3,4-dihydro-2H-chromen-4-yl]-3-(2-oxo-1,2,3,4-tetrahydroquinolin-7-yl)urea], at human TRPV1 [1], the “human TRPV1 H^+ (max % remain)” value stood at 34%. In addition, the inhibition in vivo at 10 mg/kg with rats [2] worked out at 46%. Besides, at human TRPV1 [3], the IC50 came to 7 nM.
On to `Cn1c(=O)ccc2c(NC(=O)N[C@@H]3CC(CF)(CF)Oc4cc(F)ccc43)cccc21` [Example 27, 1-[(4R)-7-fluoro-2,2-bis(fluoromethyl)-3,4-dihydro-2H-chromen-4-yl]-3-(1-methyl-2-oxo-1,2-dihydroquinolin-5-yl)urea], for which the “human TRPV1 H^+ (max % remain)” value at human TRPV1 [1] was 42%. Besides, the inhibition in vivo at 0.1 µmol/kg in the assay with rats [4] came to 33%. Also, the half-inhibitory concentration (IC50) at human TRPV1 [3] amounted to 21 nM.
